Data reported in PMC10572522, “A Designed Analog of an Antimicrobial Peptide, Crabrolin, Exhibits Enhanced Anti-Proliferative and In Vivo Antimicrobial Activity” (International Journal of Molecular Sciences, 2023).
Residues, ends and D or L forms follow the SMILES beside them.

Legend:
[1] = tested on: E. faecium (NTCC12697) biofilm; format: cell-based, Enterococcus faecium; conditions: for MBIC: biofilm inhibitory rate more than 90%; for MBEC: eradication rate greater than 99.9%
Description: (§1) To measure the antibiofilm activity of crabrolin and its derivatives, four drug-resistant biofilm-forming strains, MRSA (NCTC 12493), K. pneumoniae (ATCC 43816), E. faecium (NTCC-12697), and P. aeruginosa (ATCC 9027), were used in this assay. Tryptic soy broth (TSB) (for the Gram-positive bacteria) and Luria–Bertani broth (LB) (for the Gram-negative bacteria) were used to culture the bacteria.
(§2) The mass of the biofilm in this assay was detected by the crystal violet staining method. First, 100 μL of 5 × 10^5 CFU/mL bacteria was incubated with 1 μL of different peptide solutions (ranging from 51200 μM to 100 μM) for 24 h at 37 °C with 200 rpm shaking. After the biofilm formation, 100 μL of PBS was used to rinse the biofilm twice. Next, 100 µL of methanol was added to fix the biofilm, and the biofilm was then dried. Thereafter, 100 μL of 0.1% crystal violet was added and left to stain for 15 min, and then the excess crystal violet was further rinsed by PBS. After the plate had air-dried, 30% glacial acetic acid was added to each well of the plate, and the plate was shaken for 15 min before the optical density (OD) value was measured at 595 nm using a Synergy HT plate reader. The MBIC value refers to the minimum concentration at which the biofilm inhibitory rate was more than 90%.
(§3) Different from measuring the MBIC value, to determine the MBEC value, 100 μL of the bacteria was first added to 96-well plates. After the biofilm was formed, the biofilm was rinsed with PBS twice to remove the planktonic cells, and then different concentrations of the drugs were added to the biofilm (the same as the MBIC assay). The mixture was incubated at 37 °C with shaking at 200 rpm. After 24 h of incubation, the mass of the biofilm was measured in the same way as the MBIC value, and the minimum concentration at which the eradication rate was greater than 99.9% was considered to be the MBEC value.

horse erythrocytes = test: Hemolysis assay; format: cell-based; conditions: for HC10 (10% hemolytic concentration) / HC50 (50% hemolytic concentration): erythrocytes, 37 °C, 2 h
Description: (§4) According to the procedures described in detail in a previous study, the debris and impurities of the erythrocytes were washed with PBS in advance to yield 2% of the erythrocyte suspension, and the drug concentration was diluted from 1024 µM to 2 µM with PBS [53]. The same amounts of the drug and the erythrocyte suspension were mixed and cultured at 37 °C for 2 h; 0.1% Triton X-100 (Sigma-Aldrich, St. Louis, MO, USA) was prepared as a positive control, and PBS was prepared as a negative control. After the incubation, the supernatant was transferred to a 96-well plate and then detected using a Synergy HT plate reader at 570 nm.

Hemolysis assay = format: cell-based, horse; conditions: horse, erythrocytes (2% suspension); for hemolysis at 2 h: at the peptide's maximum MIC, relative to Triton X-100, read-out: Hemolysis under the Maximum MIC
Description: as §4

[2] = tested on: MRSA (NCTC 12493) biofilm; format: cell-based, methicillin-resistant Staphylococcus aureus; conditions: for MBIC: biofilm inhibitory rate more than 90%; for MBEC: eradication rate greater than 99.9%
Description: as §1, §2, §3

[3] = tested on: K. pneumoniae (ATCC 43816); test: Antimicrobial susceptibility assay (MIC/MBC); format: cell-based, Klebsiella pneumoniae; conditions: for MIC: MHB, 37 °C, 20 h
Description: (§5) Six bacteria were tested in this experiment to detect the antimicrobial effects of crabrolin and its derivatives, including S. aureus (NCTC 10788), MRSA (NCTC 12493), E. coli (ATCC 8739), K. pneumoniae (ATCC 43816), E. faecium (NTCC-12697), and P. aeruginosa (ATCC 9027). The tested bacteria were cultured in Mueller Hinton broth medium (MHB) with norfloxacin (20 mg/L) as a positive control. All bacteria were incubated at 37 °C overnight and diluted to 5 × 10^5 CFU/mL before treating with the peptides. Stock solutions of 51,200 µM peptides were prepared in phosphate-buffered saline (PBS) and further diluted by a factor of two to 100 µM. Next, 1 µL of each peptide solution was mixed with 99 µL of bacterial subculture in a 96-well plate, and the plate was incubated at 37 °C for 20 h. After culturing, the absorbance of each well in the 96-well plate was analyzed at 550 nm using a Synergy HT plate reader (BioliseBioTek, Winooski, VT, USA). […] Starting with the MIC value, 10 µL of the solution from each well was dripped onto Mueller Hinton agar (MHA) plates. The plates were cultured at 37 °C for 20 h. After culturing, the lowest concentration with no colony growth was regarded as the MBC.

[4] = tested on: P. aeruginosa (ATCC 9027) biofilm; format: cell-based, Pseudomonas aeruginosa; conditions: for MBIC: biofilm inhibitory rate more than 90%; for MBEC: eradication rate greater than 99.9%
Description: as §1, §2, §3

[5] = tested on: K. pneumoniae (ATCC 43816) biofilm; format: cell-based, Klebsiella pneumoniae; conditions: for MBIC: biofilm inhibitory rate more than 90%; for MBEC: eradication rate greater than 99.9%
Description: as §1, §2, §3

MRSA (NCTC 12493) = test: Antimicrobial susceptibility assay (MIC/MBC); format: cell-based, methicillin-resistant Staphylococcus aureus; conditions: for MIC: MHB, 37 °C, 20 h
Description: as §5

SMILES | MBIC [1] [µM] | MBEC [1] [µM] | Hemolytic activity (horse erythrocytes; 256 µM) [%] | HC10 (10% hemolytic concentration) (horse erythrocytes) [µM] | HC50 (50% hemolytic concentration) (horse erythrocytes) [µM] | hemolysis at 2 h (Hemolysis assay) [%] | MBIC [2] [µM] | MBEC [2] [µM] | MBC [3] [µM] | MIC [3] [µM] | MBIC [4] [µM] | MBEC [4] [µM] | MBIC [5] | MBEC [5] | MBC (MRSA (NCTC 12493)) [µM] | MIC (MRSA (NCTC 12493)) [µM] | MIC (MRSA (NCTC 12493); listed as crabrolin) [µM] | Hemolysis (horse erythrocytes; 8 μM) | hemolysis at 2 h, 100 µM (Hemolysis assay; 100 μM) [%]
CC[C@H](C)[C@H](NC(=O)[C@H](CC(C)C)NC(=O)[C@@H]1CCCN1C(=O)[C@H](CC(C)C)NC(=O)[C@@H](N)Cc1ccccc1)C(=O)N[C@@H](CC(C)C)C(=O)N[C@@H](CCCNC(=N)N)C(=O)N[C@@H](CCCCN)C(=O)N[C@H](C(=O)N[C@H](C(=O)N[C@H](C(=O)N[C@@H](C)C(=O)N[C@@H](CC(C)C)C(N)=O)[C@@H](C)O)C(C)C)[C@@H](C)CC [Crabrolin, FLPLILRKIVTAL-NH2] (H-FLPLILRKIVTAL-NH2) | 32 | > 512 | 100 | 34.575 | 120.654 | 53.5 | 4 | 128 | 128 | 64 | 128 | 512 | >512/>512 µM | >512/>512 µM | 8 | 4 | 8 |  | 
CC[C@H](C)[C@H](NC(=O)[C@H](CCCNC(=N)N)NC(=O)[C@@H]1CCCN1C(=O)[C@H](CC(C)C)NC(=O)[C@@H](N)Cc1ccccc1)C(=O)N[C@@H](CC(C)C)C(=O)N[C@@H](CCCNC(=N)N)C(=O)N[C@@H](CCCCN)C(=O)N[C@H](C(=O)N[C@H](C(=O)N[C@@H](CCCNC(=N)N)C(=O)N[C@@H](C)C(=O)N[C@@H](CC(C)C)C(N)=O)C(C)C)[C@@H](C)CC [Crabrolin-TR, FLPRILRKIVRAL-NH2] (H-FLPRILRKIVRAL-NH2) | 16 | > 512 |  | 36.041 | 211.927 | 3.76 | 2 | 64 | 8 | 8 | 8 | 256 | 8 µM | 128 µM | 2 | 2 |  | neither crabrolin-TR nor crabrolin21 caused hemolysis | ~50
